Test system: modified version of the GPR119 receptor (94% identity to human receptor)
Assay: cAMP production assay (LANCE cAMP kit, TR-FRET) in HEK-293 cells
Assay type: cell-based
Conditions: for cAMP production in HEK-293 cells: HEK-293 cells stably expressing modified GPR119, test compounds 0.2 nM to 10 μM, one-hour incubation at ambient temperature; for Fold over baseline: increase in cAMP relative to basal levels, agonist activity if 1.5-fold or greater
In short: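 Doxycycline-induced (1 μg/mL, overnight) HEK-293 cells expressing modified GPR119 were thawed, 2000 cells/well, and exposed to compounds (0.2 nM-10 μM final, 0.5% DMSO) for 1 h at ambient temperature in HBSS/HEPES/BSA. cAMP was measured by LANCE TR-FRET against a standard curve. Agonism was defined as ≥1.5-fold over basal.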

SMILES	cAMP production in HEK-293 cells [nmol]	Fold over baseline
CCc1cnc(N2CCC(N3CC[C@H](Oc4cc(C)c(Br)cc4F)C3=O)CC2)nc1 [Example 97, (S)-3-(4-bromo-2-fluoro-5-methylphenoxy)-1-(1-(5-ethylpyrimidin-2-yl)piperidin-4-yl)pyrrolidin-2-one]	15.3	2.2
N#Cc1ccc(N[C@H]2CCN(C3CCN(c4ncc(C(F)(F)F)cc4Cl)CC3)C2=O)c(F)c1 [Example 152, (S)-4-(1-(1-(3-chloro-5-(trifluoromethyl)pyridin-2-yl)piperidin-4-yl)-2-oxopyrrolidin-3-ylamino)-3-fluorobenzonitrile]	26.6	3.3
CCc1cnc(N2CCC(N3CCC[C@H](Nc4cc(F)c(S(C)(=O)=O)cc4F)C3=O)CC2)cn1 [Example 59, (S)-3-(2,5-difluoro-4-(methylsulfonyl)phenylamino)-1′-(5-ethylpyrazin-2-yl)-[1,4′-bipiperidin]-2-one]	22.6	3.4
O=C1[C@@H](Oc2ccc(-n3cncn3)cc2)CCN1C1CCN(c2ncc(C(F)(F)F)cc2Cl)CC1 [Example 141, (S)-3-(4-(1H-1,2,4-triazol-1-yl)phenoxy)-1-(1-(3-chloro-5-(trifluoromethyl)pyridin-2-yl)piperidin-4-yl)pyrrolidin-2-one]	15.5	3.7
Cc1cc(S(C)(=O)=O)ncc1N[C@H]1CCN(C2CCN(c3cnc(Cl)cn3)CC2)C1=O [Example 123, (S)-1-(1-(5-chloropyrazin-2-yl)piperidin-4-yl)-3-(4-methyl-6-(methylsulfonyl)pyridin-3-ylamino) pyrrolidin-2-one]	15.8	3.5
CS(=O)(=O)c1ccc(N[C@@H]2CCN(C3CCN(c4cnc(Cl)cn4)CC3)C2=O)c(F)c1 [Example 118, (R)-1-(1-(5-chloropyrazin-2-yl)piperidin-4-yl)-3-(2-fluoro-4-(methylsulfonyl)phenyl-amino)pyrrolidin-2-one]	40.6	3.4
CCS(=O)(=O)c1ccc(N[C@H]2CCN(C3CCN(c4cnc(Cl)cn4)CC3)C2=O)c(F)c1 [Example 17, (S)-1-(1-(5-chloropyrazin-2-yl)piperidin-4-yl)-3-(4-(ethylsulfonyl)-2-fluorophenylamino)pyrrolidin-2-one]	107.3	5.3
Cc1nnc(-c2ccc(O[C@H]3CCN(C4CCN(c5ncc(Cl)cn5)CC4)C3=O)c(F)c2)o1 [Example 72, (S)-1-(1-(5-chloropyrimidin-2-yl)piperidin-4-yl)-3-(2-fluoro-4-(5-methyl-1,3,4-oxadiazol-2-yl)Phenoxy)pyrrolidin-2-one]	7.5	2.8
CS(=O)(=O)c1ccc(N[C@H]2CCN(C3CCN(c4ncc(Cl)cn4)CC3)C2=O)c(F)c1 [Example 10, (S)-1-(1-(5-chloropyrimidin-2-yl)piperidin-4-yl)-3-(2-fluoro-4-(methylsulfonyl)phenylamino)pyrrolidin-2-one]	6.5	2.1
CCc1ncc(N2CCC(N3CC[C@H](Nc4ccc(S(C)(=O)=O)cc4F)C3=O)CC2)cn1 [Example 159, (S)-1-(1-(2-ethylpyrimidin-5-yl)piperidin-4-yl)-3-(2-fluoro-4-(methylsulfonyl)phenylamino)pyrrolidin-2-one]	8.0	2.0
CS(=O)(=O)c1ccc(N[C@H]2CCN(C3CCN(c4cnccn4)CC3)C2=O)c(F)c1 [Example 106, (S)-3-(2-fluoro-4-(methylsulfonyl)phenyl-amino)-1-(1-(pyrazin-2-yl)piperidin-4-yl)pyrrolidin-2-one]	17.8	3.0
CS(=O)(=O)c1ccc(O[C@H]2CCN(C3CCN(c4cnc(Cl)cn4)CC3)C2=O)c(F)c1 [Example 91, (S)-1-(1-(5-chloropyrazin-2-yl)piperidin-4-yl)-3-(2-fluoro-4-(methylsulfonyl)phenoxy)pyrrolidin-2-one]	38.0	3.9
Cn1nccc1-c1cnc(N2CCC(N3CC[C@H](Nc4ccc(S(C)(=O)=O)cc4F)C3=O)CC2)nc1 [Example 32, (S)-3-(2-fluoro-4-(methylsulfonyl)phenylamino)-1-(1-(5-(1-methyl-1H-pyrazol-5-yl)pyrimidin-2-yl)piperidin-4-yl)pyrrolidin-2-one]	10.9	2.4
CS(=O)(=O)c1ccc(N[C@H]2CCN(C3CCN(c4ncc(Cl)cc4Cl)CC3)C2=O)c(F)c1 [Example 109, (S)-1-(1-(3,5-dichloropyridin-2-yl)piperidin-4-yl)-3-(2-fluoro-4-(methylsulfonyl)phenyl-amino)pyrrolidin-2-one]	15.8	2.9
CCc1cnc(N2CCC(N3CCC[C@H](Nc4cc(Cl)c(S(C)(=O)=O)cc4F)C3=O)CC2)nc1 [Example 48, (S)-3-(5-chloro-2-fluoro-4-(methyl-sulfonyl)phenylamino)-1′-(5-ethylpyrimidin-2-yl)-[1,4′-bipiperidin]-2-one]	16.9	3.0
CS(=O)(=O)c1ccc(N[C@H]2CCN(C3CCN(c4cnc(Cl)cn4)CC3)C2=O)cn1 [Example 131, (S)-1-(1-(5-chloropyrazin-2-yl)piperidin-4-yl)-3-(6-(methylsulfonyl)pyridin-3-ylamino)pyrrolidin-2-one]	24.8	3.8
CC(O)c1cnc(N2CCC(N3CCC[C@H](Nc4cc(F)c(S(C)(=O)=O)cc4F)C3=O)CC2)nc1 (stereo partly drawn) [Example 64, (3S)-3-(2,5-difluoro-4-(methylsulfonyl)phenylamino)-1′-(5-(1-hydroxyethyl)pyrimidin-2-yl)-[1,4′-bipiperidin]-2-one]	7.4	2.0
O=C1[C@@H](Nc2ccc(C(F)(F)F)cn2)CCN1C1CCN(c2cnc(Cl)cn2)CC1 [Example 23, (S)-1-(1-(5-chloropyrazin-2-yl)piperidin-4-yl)-3-(5-(trifluoromethyl)pyridin-2-ylamino)pyrrolidin-2-one]	13.6	3.0
CS(=O)(=O)c1ccc(N[C@H]2CCN(C3CCN(c4ccc(C(F)(F)F)cn4)CC3)C2=O)c(F)c1 [Example 99, (S)-3-(2-fluoro-4-(methyl-sulfonyl)phenylamino)-1-(1-(5-(trifluoromethyl)pyridin-2-yl)piperidin-4-yl)pyrrolidin-2-one]	12.4	3.5
CS(=O)(=O)c1ccc(N[C@H]2CCN(C3CCN(c4ccc(C#N)cn4)CC3)C2=O)c(F)c1 [Example 112, (S)-6-(4-(3-(2-fluoro-4-(methylsulfonyl)phenyl-amino)-2-oxopyrrolidin-1-yl)piperidin-1-yl)nicotinonitrile]	22.5	1.7
CCc1cnc(N2CCC(N3CCC[C@H](Nc4cc5c(cc4F)S(=O)(=O)CC5)C3=O)CC2)nc1 [Example 73, (S)-1′-(5-ethylpyrimidin-2-yl)-3-((6-fluoro-1,1-dioxido-2,3-dihydrobenzo[b]thiophen-5-yl)amino)-[1,4′-bipiperidin]-2-one]	14.4	3.0
CC(C)c1cnc(N2CCC(N3CCC[C@H](Nc4cc(F)c(S(C)(=O)=O)cc4F)C3=O)CC2)cn1 [Example 60, (S)-3-(2,5-difluoro-4-(methylsulfonyl)phenylamino)-1′-(5-isopropylpyrazin-2-yl)-[1,4′-bipiperidin]-2-one]	27.4	4.4
O=C(c1ccc(O[C@H]2CCN(C3CCN(c4ncc(Cl)cc4F)CC3)C2=O)cn1)N1CCCC1 [Example 148, (S)-1-(1-(5-chloro-3-fluoropyridin-2-yl)piperidin-4-yl)-3-(6-(pyrrolidine-1-carbonyl)pyridin-3-yloxy)pyrrolidin-2-one]	14.4	2.4
CS(=O)(=O)c1ccc(N[C@H]2CCN(C3CCN(c4ncc(Cl)nc4Cl)CC3)C2=O)cn1 [Example 161, (S)-1-(1-(3,5-dichloropyrazin-2-yl)piperidin-4-yl)-3-(6-(methylsulfonyl)pyridin-3-ylamino)pyrrolidin-2-one]	13.8	3.6
CCc1cnc(N2CCC(N3CCCC(Nc4ccc(S(C)(=O)=O)cc4F)C3=O)CC2)nc1 (stereo not drawn) [Example 62, 1′-(5-ethylpyrimidin-2-yl)-3-(2-fluoro-4-(methylsulfonyl)phenylamino)-[1,4′-bipiperidin]-2-one]	9.8	2.9
CS(=O)(=O)c1cc(F)c(N[C@H]2CCN(C3CCN(c4cnc(Cl)cn4)CC3)C2=O)c(F)c1 [Example 20, (S)-1-(1-(5-chloropyrazin-2-yl)piperidin-4-yl)-3-(2,6-difluoro-4-(methylsulfonyl)phenylamino) pyrrolidin-2-one]	24.4	6.5
CS(=O)(=O)c1cc(F)c(N[C@H]2CCCCN(C3CCN(c4cncc(Cl)n4)CC3)C2=O)cc1F.Cl [Example 84, (S)-1-(1-(6-chloropyrazin-2-yl)piperidin-4-yl)-3-(2,5-difluoro-4-(methylsulfonyl)phenylamino)azepan-2-one hydrochloride]	6.3	1.8

Source: patent US8754226B2, “Piperidinyl-substituted lactams as GPR119 modulators” (Array BioPharma Inc., priority 2010, dated 2014)
